Measured values reported in patent US20220396597A1 (priority 2019, published 2022).

Assays:
[1] = system: NMDAR; experiment: NMDA-induced whole-cell currents in cultured hippocampal neurons (voltage clamp); type: cell-based, rat; details: 10 μM NMDA
[2] = molecular target: α1Q241L mutated GABAARs (UniProt P18507+P47870+P62813, Q268L); experiment: GABA current in N2a cells transfected with α1Q241L, β2 and γ2 subunits; type: cell-based; details: 10 μM GABA; AlloP 50 nM, MQ-221 10 μM
α1Q241L mutated GABAARs, sequence (P62813 28-455 Q268L): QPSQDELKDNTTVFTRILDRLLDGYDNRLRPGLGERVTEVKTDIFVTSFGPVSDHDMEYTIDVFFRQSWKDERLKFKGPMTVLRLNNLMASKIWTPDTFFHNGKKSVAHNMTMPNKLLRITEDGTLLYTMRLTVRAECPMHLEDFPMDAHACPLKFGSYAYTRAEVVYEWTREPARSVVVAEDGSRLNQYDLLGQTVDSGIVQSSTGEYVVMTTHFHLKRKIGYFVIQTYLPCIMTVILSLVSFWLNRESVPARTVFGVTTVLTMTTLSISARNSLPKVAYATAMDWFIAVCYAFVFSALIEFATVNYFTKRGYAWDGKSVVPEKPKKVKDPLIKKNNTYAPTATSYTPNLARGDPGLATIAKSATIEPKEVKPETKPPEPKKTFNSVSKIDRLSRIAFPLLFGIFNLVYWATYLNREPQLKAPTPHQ
α1Q241L mutated GABAARs, sequence (P47870 25-512 limits assumed): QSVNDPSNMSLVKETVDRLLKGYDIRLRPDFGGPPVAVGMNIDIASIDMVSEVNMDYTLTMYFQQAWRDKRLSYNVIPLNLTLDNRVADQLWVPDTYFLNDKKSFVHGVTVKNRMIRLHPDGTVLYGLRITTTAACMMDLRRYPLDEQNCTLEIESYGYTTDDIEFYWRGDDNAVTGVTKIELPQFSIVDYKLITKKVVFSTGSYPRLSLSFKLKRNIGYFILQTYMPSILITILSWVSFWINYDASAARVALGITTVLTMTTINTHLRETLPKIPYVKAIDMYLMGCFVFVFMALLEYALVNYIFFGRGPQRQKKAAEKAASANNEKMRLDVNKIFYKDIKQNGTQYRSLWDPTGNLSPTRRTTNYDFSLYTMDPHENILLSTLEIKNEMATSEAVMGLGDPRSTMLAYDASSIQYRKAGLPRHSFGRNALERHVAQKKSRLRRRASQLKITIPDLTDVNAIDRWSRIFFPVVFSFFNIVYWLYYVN
α1Q241L mutated GABAARs, sequence (P18507 40-475): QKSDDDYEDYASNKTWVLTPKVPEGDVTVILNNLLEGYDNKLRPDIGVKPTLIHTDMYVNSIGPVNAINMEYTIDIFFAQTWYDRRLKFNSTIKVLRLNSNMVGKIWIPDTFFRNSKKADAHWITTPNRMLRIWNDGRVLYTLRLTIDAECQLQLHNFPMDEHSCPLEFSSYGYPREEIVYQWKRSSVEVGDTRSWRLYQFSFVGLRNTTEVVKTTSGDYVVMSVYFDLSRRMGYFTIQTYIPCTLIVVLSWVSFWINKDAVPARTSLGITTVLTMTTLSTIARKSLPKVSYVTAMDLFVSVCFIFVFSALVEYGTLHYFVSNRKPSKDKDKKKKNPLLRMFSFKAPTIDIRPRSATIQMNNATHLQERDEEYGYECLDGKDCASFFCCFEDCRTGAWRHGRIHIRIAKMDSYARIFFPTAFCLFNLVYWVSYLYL

Row | Molecule | Action on closed NMDAR channels (pre-application in the absence of agonist) ([1]; 2.5 μM MQ-221, 300 μM 3α5βPS) | Inhibition of NMDAR function in the presence of agonist (co-application) ([1]; 300 μM 3α5βPS) | Effect of the α1 Q241L mutation on potentiation of GABA current [2]
1 | pregnanolone sulfate [reference compound] | little effect on closed channels | strongly inhibited | –
2 | CC(=O)[C@H]1CC[C@H]2[C@@H]3CC[C@H]4C[C@H](O)CC[C@]4(C)[C@H]3CC[C@]12C [allopregnanolone, reference compound] | – | – | elimination of allopregnanolone (AlloP) potentiation
